The results in this text go back to ChEMBL document CHEMBL2429789, “Discovery, Design, and Optimization of Isoxazole Azepine BET Inhibitors” (ACS Med Chem Lett, 2013).

Series [1] addresses T1, Bromodomain-containing protein 4 (Homo sapiens, UniProt O60885). Briefly: Inhibition of BRD4 in human Raji cells assessed as reduction of MYC expression after 4 hrs. It is filed as cell-based.
Series [2] deals with T1, Bromodomain-containing protein 4. Briefly: Inhibition of His-FLAG-tagged BRD4 binding domain1 (unknown origin) binding to H4-TetraAc-biotin peptide after 20 mins by AlphaLISA. (In general: Bead proximity is the source of the signal in Alpha formats.)
Series [3] concerns the target CYP3A4 (Homo sapiens, UniProt P08684). The series is described as follows: Inhibition of CYP3A4 (unknown origin) at 10 uM. It is filed as ADME.
The nature of series [4]: Volume of distribution at steady state in rat at 1 mg/kg, iv. The series is classed as ADME, organism-based. More on the design: dose 1 mg/kg, route intravenous. The note with it: in vivo, read-out: Vdss.
Series [5] is described as follows: Half life in rat at 1 mg/kg, iv. The series is classed as ADME, organism-based. More on the design: dose 1 mg/kg, route intravenous. The conditions noted are these: in vivo.
The nature of series [6]: Plasma protein binding in human. It is filed as ADME, cell-free. The note with it: read-out: PPB (converted).
Series [7] can be described thus: Oral bioavailability in rat at 5 mg/kg. The conditions noted are these: in vivo. It is filed as ADME, organism-based.
A short description of series [8]: AUC in rat at 5 mg/kg, po. The note with it: plasma. More on the design: dose 5 mg/kg, route oral. It is filed as ADME, organism-based.
For series [9], the system named is Rattus norvegicus. The series is described as follows: […] clearance in rat at 1 mg/kg, iv. On the set-up: dose 1 mg/kg, route intravenous. It is filed as ADME, organism-based. The conditions noted are these: in vivo.
The nature of series [10]: Intrinsic clearance in rat liver microsomes. It is filed as ADME, Microsome. The conditions noted are these: read-out: CLH. (Liver microsomes are vesicles of endoplasmic reticulum, rich in cytochrome P450 enzymes.)
The nature of series [11]: Intrinsic clearance in human liver microsomes. It is filed as ADME, Microsome. The note with it: read-out: CLH.
Series [12] deals with Plasma. Briefly: Stability of the compound in rat plasma. It is filed as ADME, cell-free.
Series [13] relates to Mus musculus. Briefly: Inhibition of MYC expression in tumor of NOD/SCID Harlan mouse xenografted with human Raji cells at 100 mg/kg, po after 8 hrs relative to control. It is filed as functional, organism-based. More on the design: dose 100 mg/kg. A general note: Xenograft models place foreign cells or tissue in a host animal.
Series [14] in a line: Plasma protein binding in rat. The series is classed as ADME, cell-free. The conditions noted are these: read-out: PPB (converted).
Series [15] can be described thus: AUC in mouse at 5 mg/kg, po. The series is classed as ADME, organism-based. On the set-up: dose 5 mg/kg, route oral. The conditions noted are these: plasma.
Series [16] relates to Mus musculus. The series is described as follows: Inhibition in MYC expression in tumor of po dosed NOD/SCID Harlan mouse xenografted with human Raji cells. It is filed as functional, organism-based.
Series [17] can be described thus: Volume of distribution at steady state in dog at 1 mg/kg, iv. The series is classed as ADME, organism-based, Canis lupus familiaris. On the set-up: dose 1 mg/kg, route intravenous. The note with it: in vivo, read-out: Vdss.
Series [18] in a line: Intrinsic clearance in dog liver microsomes. It is filed as ADME, Canis lupus familiaris, Microsome. The conditions noted are these: read-out: CLH.
Series [19] deals with Mus musculus. Briefly: Inhibition in MYC expression in tumor of NOD/SCID Harlan mouse xenografted with human Raji cells at 100 mg/kg, po. The series is classed as functional, organism-based. More on the design: dose 100 mg/kg.
The subject of series [20] is Canis familiaris. Briefly: Intrinsic clearance in dog at 1 mg/kg, iv. It is filed as ADME, organism-based, Canis lupus familiaris. On the set-up: dose 1 mg/kg, route intravenous. The note with it: in vivo.
Series [21] in a line: Intrinsic clearance in mouse liver microsomes. It is filed as ADME, Microsome. The conditions noted are these: read-out: CLH.
A short description of series [22]: Drug uptake in tumor of NOD/SCID Harlan mouse xenografted with human Raji cells at 100 mg/kg, po. The series is classed as ADME, organism-based, Neoplasm. On the set-up: dose 100 mg/kg, route oral. The conditions noted are these: in vivo, read-out: Drug uptake.
Series [23] relates to Mus musculus. Briefly: Inhibition of MYC expression in tumor of NOD/SCID Harlan mouse xenografted with human Raji cells at 100 mg/kg, po up to 8 hrs. The series is classed as functional, organism-based. On the set-up: dose 100 mg/kg.
In series [24] the test system is Mus musculus. The series is described as follows: Inhibition in MYC expression in tumor of NOD/SCID Harlan mouse xenografted with human Raji cells at 100 mg/kg, po after 4 hrs. The series is classed as functional.
The nature of series [25]: Plasma protein binding in mouse. The series is classed as ADME, cell-free. The conditions noted are these: read-out: PPB (converted).
A short description of series [26]: Half life in dog at 1 mg/kg, iv. The conditions noted are these: in vivo. On the set-up: dose 1 mg/kg, route intravenous. It is filed as ADME, organism-based, Canis lupus familiaris.

Each structure is given as a SMILES string. The source made the active and inactive calls.

Sequence of CYP3A4 (P08684 whole entry): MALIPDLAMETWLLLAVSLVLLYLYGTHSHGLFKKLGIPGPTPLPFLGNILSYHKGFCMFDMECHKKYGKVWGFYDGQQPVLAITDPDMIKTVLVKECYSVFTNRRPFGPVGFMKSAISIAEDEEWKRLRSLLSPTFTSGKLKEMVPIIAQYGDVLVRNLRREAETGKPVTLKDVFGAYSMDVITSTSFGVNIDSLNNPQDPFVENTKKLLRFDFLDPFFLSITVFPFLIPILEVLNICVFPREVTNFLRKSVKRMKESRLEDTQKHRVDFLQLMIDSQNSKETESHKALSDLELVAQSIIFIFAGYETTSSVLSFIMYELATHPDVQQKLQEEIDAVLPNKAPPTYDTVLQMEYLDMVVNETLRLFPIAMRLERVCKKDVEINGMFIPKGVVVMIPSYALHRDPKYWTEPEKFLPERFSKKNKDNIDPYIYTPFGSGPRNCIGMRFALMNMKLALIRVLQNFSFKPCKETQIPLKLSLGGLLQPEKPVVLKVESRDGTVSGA

By IC50 is commonly meant the concentration needed to halve the response being measured. As to `CCNC(=O)C[C@@H]1N=C(c2ccc(Cl)cc2)c2c(sc(C)c2C)-c2c(C)noc21`, the 50% inhibitory concentration (IC50) came out at 0.32 µM in [1] and 0.036 µM in series [2].
As a reminder, the inhibition is the change of the read-out against control, counted positive when it falls. By half-life is commonly meant the time needed for the level to fall by half in the phase considered. What is called bioavailability is dose-corrected exposure relative to a reference, in per cent. Broadly, the AUC is the area under the concentration-time curve, a measure of exposure. Read a low AUC as low exposure. Take `Cc1noc2c1-c1sc(C)c(C)c1C(c1ccc(C#N)cc1)=N[C@H]2CC(N)=O`: at 10 µM the inhibition in series [3] was 0%. In addition, in [4], the Vd was 2.22 L/kg. Besides, the half-life in series [5] was 0.393 h. For the same compound, the fraction unbound in [6] is 0.041. The IC50 in series [1] stood at 0.091 µM; in series [2] it was 0.033 µM. This compound also yielded a bioavailability in [7] of 44%. The AUC in [8] came out at 504 ng·h/mL. Moreover, the CL in series [9] came out at 72.5 mL/min/kg. Also, the microsomal CLint was 8.9 µL/min/mg in series [10] and 4.6 µL/min/mg in series [11]. For the same compound, the Stability entry in [12] is on record as “Unstable”.
Consider `CC(=O)NC[C@@H]1N=C(c2ccc(Cl)cc2)c2c(sc(C)c2C)-c2c(C)noc21`, for which the IC50 in series [1] was determined as 2.2 µM; in [2] it was 0.19 µM.
On to `Cc1noc(N)c1-c1ccccc1`, for which the IC50 in series [2] turned out to be 33 µM.
For the compound `Cc1noc2c1-c1sc(C)c(C)c1C(c1ccc(Cl)cc1)=N[C@H]2CC(=O)OC(C)(C)C`, the IC50 came to 2.1 µM in series [1] and 0.29 µM in series [2].
As for `Cc1noc2c1-c1sc(C)c(C)c1C(c1ccc(Cl)cc1)=N[C@H]2Cc1nccs1`, the IC50 came to 2.1 µM in series [1] and 0.19 µM in series [2].
With `CCNC(=O)C[C@H]1N=C(c2ccc(Cl)cc2)c2c(sc(C)c2C)-c2c(C)noc21`, the IC50 in series [2] is 2.1 µM.
In the case of `Cc1noc2c1-c1sc(C)c(C)c1C(c1cncnc1)=N[C@H]2CC(N)=O`, the IC50 in series [2] is 2.5 µM.
For `Cc1noc2c1-c1sc(C)c(C)c1C(c1ccc(Cl)cn1)=N[C@H]2CC(N)=O`, the figures for the 50% inhibitory concentration (IC50) in series [1] and in series [2] were 0.24 µM and 0.072 µM, respectively.
The compound `Cc1noc2c1-c1sc(C)c(C)c1C(c1ccc(N)nc1)=N[C@H]2CC(N)=O` registered an inhibition at 10 µM in series [3] of 20%. For the same compound, the fraction unbound in series [6] is 0.006. Besides, the 50% inhibitory concentration (IC50) in series [1] was 0.38 µM; in series [2], 0.073 µM. In addition, the values for the microsomal CLint in series [10] and in [11] were 18 µL/min/mg and 5.4 µL/min/mg, respectively. In addition, the Stability entry in series [12] was “Unstable”.
As for `COC(=O)NC[C@@H]1N=C(c2ccc(Cl)cc2)c2c(sc(C)c2C)-c2c(C)noc21`, the IC50 stood at 1.9 µM in series [1] and 0.086 µM in series [2].
With `Cc1noc2c1-c1sc(C)c(C)c1C(c1ccccc1)=N[C@H]2CC(N)=O`, 10 µM produced 1% inhibition in [3]. The fraction unbound in series [6] was 0.018. In addition, the results for the IC50 in series [1] and in series [2] were 0.18 µM and 0.029 µM, respectively. Moreover, the microsomal CLint in series [10] was determined as 160 µL/min/mg; in [11], 2.4 µL/min/mg. In series [12], the Stability entry is recorded as “Unstable”.
`Cc1noc2c1-c1sc(C)c(C)c1C(c1ccc(C#N)cc1)=N[C@H]2[C@@H](C)C(N)=O`: the IC50 in series [1] came out at 0.71 µM; in series [2], 0.25 µM.
In the same order, the values of `Cc1noc2c1-c1sc(C)c(C)c1C(c1ccc(Cl)cc1)=N[C@H]2Cc1ncc[nH]1` are 3.6 µM and 0.2 µM.
In the same order, the values of `Cc1noc2c1-c1sc(C)c(C)c1C(c1cccc(Cl)c1)=N[C@H]2CC(N)=O` are 0.47 µM and 0.074 µM.
In [2], `Cc1noc2c1-c1sc(C)c(C)c1C(N1CCOCC1)=N[C@H]2CC(N)=O` showed an IC50 of 1.1 µM.
In general, inhibition in vivo refers to how much of the control response was suppressed. A higher inhibition in vivo goes with a response far below the control. On to `Cc1noc2c1-c1sc(C)c(C)c1C(c1ccc(Cl)cc1)=N[C@H]2CC(N)=O`, for which, in series [13], the inhibition result is “inactive”. For the same compound, the figures for the fraction unbound in series [14], in [6] and in [25] were 0.008, 0.006 and 0.019, respectively. Also, in series [3], the inhibition at 10 µM worked out at 20%. For the same compound, the Vd turned out to be 2.45 L/kg in series [4] and 1.27 L/kg in [17]. The half-life was 1.39 h in series [5] and 3 h in series [26]. Also, the AUC in series [15] is 723 ng·h/mL; in series [8], 605 ng·h/mL. The IC50 in series [1] was 0.14 µM; in series [2] it was 0.026 µM. In addition, in series [16], the inhibition result was “Dose-dependent effect”. Also, in series [7], the bioavailability was 31%. For the same compound, the microsomal CLint amounted to 11 µL/min/mg in [18], 140 µL/min/mg in [21], 27 µL/min/mg in [10] and 5.5 µL/min/mg in [11]. The inhibition result in series [19] and in series [23] was “Active” in each case. Besides, the results for the CL in [20] and in [9] were 5.33 mL/min/kg and 46.2 mL/min/kg, respectively. In addition, the concentration in series [22] was 5 µM. In series [24], this compound registered an inhibition in vivo at 100 mg/kg of 75%.
For `Cc1noc2c1-c1sc(C)c(C)c1C(c1ccccc1Cl)=N[C@H]2CC(N)=O`, the IC50 stood at 1.9 µM in series [1] and 0.25 µM in [2].
`Cc1noc2c1-c1sc(C)c(C)c1C(Cc1ccccc1)=N[C@H]2CC(N)=O`: the IC50 in [2] was found to be 5.7 µM.
For `CCCC1=N[C@@H](CC(N)=O)c2onc(C)c2-c2sc(C)c(C)c21`, the IC50 in [1] was determined as 1.5 µM; in [2], 0.3 µM.
For `Cc1cc(Cl)ccc1C1=N[C@@H](CC(N)=O)c2onc(C)c2-c2sc(C)c(C)c21`, in that order: 0.16 µM and 0.042 µM.
Consider `Cc1noc2c1-c1sc(C)c(C)c1C(C1CCOCC1)=N[C@H]2CC(N)=O`, for which, in [2], the IC50 amounted to 6.2 µM.
